US20260215432A1, “ANTIMICROBIAL CONJUGATED OLIGOELECTROLYTES AND METHODS THEREOF” (National University of Singapore, priority 2023, published 2026)

How the values were obtained:
[1] = tested on: MRSA; experiment: Membrane depolarization assay (DiSC3(5)); assay type: cell-based, S. aureus; settings: DiSC3(5)-encapsulated MRSA cells
Description: The interactions of DM6P with various bacterial cell membranes were first investigated through spectrometric methods. In normal cells, compartmentalization of the intracellular space by the lipid bilayer enables the maintenance of a transmembrane potential, which is necessary for regular cell division and energy production. The membrane-potential sensitive dye 3,3′-dipropylthiadicarbocyanine iodide (DiSC3(5)) accumulates within the membranes of healthy, polarized cells where its fluorescence is self-quenched. Depolarization of the membrane necessary to maintain this gradient causes the release of this dye, resulting in an increase in fluorescence intensity. […]
Determination of the extent of depolarization of bacterial cell membranes was carried out using a voltage sensitive dye DiSC3(5) (ThermoFisher, USA). The dye is able to accumulate within polarized healthy cell membranes with resulting quenched fluorescence. When the membrane is depolarized, subsequent ion permeabilization releases the dye from the membrane and gives rise to enhanced fluorescence intensity.^3 The assay was performed according to a modified protocol reported previously. […] The plate was incubated in the dark for 30 minutes, with the signal measured every 5 minutes until a stable baseline was observed. COEs were then added at varying concentrations and the fluorescence intensity was measured over time at 37° C. […]

[2] = tested on: methicillin-resistant Staphylococcus aureus (ATCC BAA-1717); experiment: Time-kill kinetics; assay type: cell-based; settings: MRSA, within the first two hours, concentrations above the MBC value of 4 μg mL^−1
Description: (§1) Separately, MRSA and P. aeruginosa cultures were challenged with DM6P at varying concentrations and aliquots were taken at specific intervals to quantify the bacteria remaining.
(§2) The time-kill kinetics was determined against Pseudomonas aeruginosa (PAO1, ATCC 47085) and methicillin-resistant Staphylococcus aureus (ATCC BAA-1717). Bacteria tested were subcultured in Cation-Adjusted Mueller Hinton II Broth (CAMHB, BD Biosciences) from overnight cultures to mid-log phase at 37° C. with shaking at 200 rpm and diluted to an OD600 value of 0.2 and aliquoted into 2 mL fractions in culture tubes. The resulting bacterial suspension was then challenged with DM6P at varying concentrations and incubated at 37° C. with shaking at 200 rpm. At regular intervals, 100 μL aliquots of each sample were diluted with 10-fold dilution in PBS and plated on TSB agar plates with 100 μL inoculation. The colonies were incubated at 37° C. overnight and counted to determine the cfu/mL of each sample. Experiments were performed in triplicate.

[3] = tested on: Pseudomonas aeruginosa (PAO1, ATCC 47085); experiment: Time-kill kinetics; assay type: cell-based; settings: P. aeruginosa, treatment at or above the MBC
Description: as §1, §2

[4] = tested on: A. baumanii (ATCC 17978); experiment: Minimum bactericidal concentration (MBC); assay type: cell-based; settings: strain AB; unit printed in b207 only
Description: (§3) To study the extent to which TPP-COEs can effectively kill bacteria, bacteria cells treated with DM6P at varying concentrations were plated onto Tryptic Soy Agar (TSA) and the minimum bactericidal concentration (MBC), where complete eradication of the inoculum occurred, was determined (Table 5). MBC values ranged from 2 μg mL^−1 towards MRSA to 8 μg mL^−1 towards PAO1 and stayed within a two to four-fold range of the MIC values for all strains tested.
(§4) Bacteria samples treated with DM6P at varying concentrations from a broth microdilution method in a 96-well plate according to the methods for determining the MIC. Colonies were plated on TSB agar plates with 20 μL inoculation and the plates incubated at 37° C. overnight. […] All measurements were performed in triplicate.

[5] = tested on: E. coli. K12 (ATCC 10798); experiment: Minimum bactericidal concentration (MBC); assay type: cell-based; settings: strain EC; unit printed in b207 only
Description: as §3, §4

[6] = tested on: P. aeruginosa (ATCC47085); experiment: Minimum bactericidal concentration (MBC); assay type: cell-based; settings: strain PA (PAO1); unit printed in b207 only
Description: as §3, §4

[7] = tested on: Methicillin-resistant S. aureus (ATCC BAA1717); experiment: Minimum bactericidal concentration (MBC); assay type: cell-based; settings: strain MRSA; unit printed in b207 only
Description: as §3, §4

[8] = tested on: K. pneumoniae (ATCC BAA1705); experiment: Minimum bactericidal concentration (MBC); assay type: cell-based; settings: strain CRKP; unit printed in b207 only
Description: as §3, §4

[9] = tested on: E. faecalis OG1RF (ATCC 47077); experiment: Minimum bactericidal concentration (MBC); assay type: cell-based; settings: strain EF; unit printed in b207 only
Description: as §3, §4

[10] = tested on: PAO1; experiment: Flow cytometry of PI uptake; assay type: cell-based, P. aeruginosa; settings: PAO1, 16 μg mL^−1 (4× MIC), PI staining
Description: Flow cytometry measurements were carried out to quantify PI uptake at the cellular level.
Bacteria cells were collected from mid-log cultures by centrifugation (7000 rpm, 10 minutes). and washed with PBS twice. Cells were treated with the COE at 4×MIC and incubated for 30 minutes. PI (30 μM, final concentration) was then added and the cells were further incubated for 10 minutes. The suspension was then diluted in PBS to an appropriate cell density and analysed with flow cytometry using an Amnis ImageStreamX Mk II Imaging Flow Cytometer. The collection gate was set using the area vs aspect ratio of the brightfield channel to select for intact cell events only. To select for PI-stained cells, excitation was carried out using a 638 nm laser and the emission was collected in the range of 642-745 nm. Data was processed using IDEAS v6.3.

## COc1cc(/C=C/c2ccc(OCCCCCC[P+](c3ccccc3)(c3ccccc3)c3ccccc3)c(OC)c2)ccc1OCCCCCC[P+](c1ccccc1)(c1ccccc1)c1ccccc1.[I-].[I-] [DM6P]
[1]
  depolarization of the bacterial membrane: dose-dependent depolarization
[2]
  bacteria remaining (nearly complete killing): < 100 cfu mL^−1
[3]
  killing at or above the MBC value: eradication of the cells
[4]
  MBC: 32 µg/mL
[5]
  MBC: 2 µg/mL
[6]
  MBC: 8 µg/mL
[7]
  MBC: 2 µg/mL
[8]
  MBC: 16 µg/mL
[9]
  MBC: 4 µg/mL
[10]
  PI uptake at the cellular level: near quantitative cell staining with PI
